Experimental data as given in ChEMBL document CHEMBL3627718, “Design, synthesis and preliminary bioactivity studies of imidazolidine-2,4-dione derivatives as Bcl-2 inhibitors” (Bioorg Med Chem, 2015).
Values belong to the compound of their own block, whether it stands above or below them.

Legend:
[1] = target: Apoptosis regulator Bcl-2 (Homo sapiens, UniProt P10415); experiment: Competitive binding affinity to Bcl-2 (unknown origin) preincubated for 30 mins followed by 5-FAM-Bid-BH3 peptide addition measured after 20 mins by fluorescence polarization assay
K562 = experiment: Cytotoxicity against human K562 cells assessed as inhibition of cell proliferation after 48 hrs by MTT assay; format: functional, cell-based; conditions: K562, 48 h
PC-3 = experiment: Cytotoxicity against human PC3 cells assessed as inhibition of cell proliferation after 48 hrs by MTT assay; format: functional, cell-based; conditions: PC-3, 48 h
MDA-MB-231 = experiment: Cytotoxicity against human MDA-MB-231 cells assessed as inhibition of cell proliferation after 48 hrs by MTT assay; format: functional, cell-based; conditions: MDA-MB-231, 48 h
Bcl-2-like protein 1 = Bcl-2-like protein 1 (Homo sapiens, UniProt Q07817); experiment: Competitive binding affinity to Bcl-XL (unknown origin) preincubated for 30 mins followed by 5-FAM-Bid-BH3 peptide addition measured after 20 mins by fluorescence polarization assay
[2] = target: Induced myeloid leukemia cell differentiation protein Mcl-1 (Homo sapiens, UniProt Q07820); experiment: Competitive binding affinity to Mcl-1 (unknown origin) preincubated for 30 mins followed by 5-FAM-Bid-BH3 peptide addition measured after 20 mins by fluorescence polarization assay
Induced myeloid leukemia cell differentiation protein Mcl-1, sequence (Q07820 whole entry): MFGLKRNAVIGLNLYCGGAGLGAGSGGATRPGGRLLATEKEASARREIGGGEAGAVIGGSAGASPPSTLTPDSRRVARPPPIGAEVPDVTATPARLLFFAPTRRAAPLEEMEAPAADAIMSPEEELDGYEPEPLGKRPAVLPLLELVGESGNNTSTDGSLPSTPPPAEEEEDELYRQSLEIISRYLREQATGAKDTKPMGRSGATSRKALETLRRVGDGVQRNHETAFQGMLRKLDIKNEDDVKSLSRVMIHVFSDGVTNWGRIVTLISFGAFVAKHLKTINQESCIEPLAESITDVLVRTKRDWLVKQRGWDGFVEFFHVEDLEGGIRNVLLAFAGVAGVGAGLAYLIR

Bcl-2-like protein 1, sequence (Q07817 whole entry): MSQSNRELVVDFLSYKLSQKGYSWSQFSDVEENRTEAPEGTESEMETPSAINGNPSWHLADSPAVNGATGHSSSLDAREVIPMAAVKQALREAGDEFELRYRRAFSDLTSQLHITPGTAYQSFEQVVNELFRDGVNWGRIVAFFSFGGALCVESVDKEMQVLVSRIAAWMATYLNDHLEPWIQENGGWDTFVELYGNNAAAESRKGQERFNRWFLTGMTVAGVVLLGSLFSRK
Apoptosis regulator Bcl-2, sequence (P10415 whole entry): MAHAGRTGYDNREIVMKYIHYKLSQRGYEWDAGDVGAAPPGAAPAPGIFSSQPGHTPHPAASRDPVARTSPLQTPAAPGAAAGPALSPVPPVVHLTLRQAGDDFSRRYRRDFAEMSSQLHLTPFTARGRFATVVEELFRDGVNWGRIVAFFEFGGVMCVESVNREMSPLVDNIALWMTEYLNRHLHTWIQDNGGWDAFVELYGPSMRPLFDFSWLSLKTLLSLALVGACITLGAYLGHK

Ki [1]: 0.62 µM
Structure (SMILES): Cc1ccc(S(=O)(=O)NC(=O)[C@H](Cc2ccccc2)N2C(=O)/C(=C/c3ccc(-c4ccccc4)cc3)SC2=S)cc1
IC50 (K562): 44.9 µM | IC50 (PC-3): 39.8 µM | IC50 (MDA-MB-231): 35.2 µM

Ki [1]: > 50 µM
Structure (SMILES): O=C(Nc1ccc(O)cc1)[C@H](Cc1ccccc1)N1C(=O)N[C@@H](Cc2ccc(-c3ccc(Cl)cc3)cc2)C1=O

Ki [1]: > 50 µM
Structure (SMILES): COC(=O)[C@H](Cc1ccccc1)NC(=O)[C@H](Cc1ccccc1)N1C(=O)N[C@@H](Cc2ccc(-c3ccc(Cl)cc3)cc2)C1=O

Ki [1]: > 50 µM
Structure (SMILES): O=C(O)[C@H](Cc1ccccc1)NC(=O)[C@H](Cc1ccccc1)N1C(=O)N[C@@H](Cc2ccc(-c3ccc(Cl)cc3)cc2)C1=O

Ki [1]: > 50 µM
Structure (SMILES): O=C(O)[C@H](Cc1ccccc1)N1C(=O)N[C@@H](Cc2ccccc2)C1=O

Ki [1]: > 50 µM
Structure (SMILES): O=C(O)[C@H](Cc1ccccc1)N1C(=O)N[C@@H](Cc2ccc(Br)cc2)C1=O

Ki [1]: > 50 µM
Structure (SMILES): O=C(O)[C@H](Cc1ccccc1)N1C(=O)N[C@@H](Cc2ccc(-c3ccc(Cl)cc3)cc2)C1=O

Ki [1]: > 50 µM
Structure (SMILES): Cc1cccc(-c2ccc(C[C@@H]3NC(=O)N([C@@H](Cc4ccccc4)C(=O)O)C3=O)cc2)c1

Ki [1]: > 50 µM
Structure (SMILES): O=C(O)[C@H](Cc1ccccc1)N1C(=O)N[C@@H](Cc2ccc(-c3ccnc(F)c3)cc2)C1=O

Ki [1]: > 50 µM
Structure (SMILES): O=C(NS(=O)(=O)c1ccccc1)[C@H](Cc1ccccc1)N1C(=O)N[C@@H](Cc2ccccc2)C1=O

Ki [1]: > 50 µM
Structure (SMILES): O=C(NS(=O)(=O)c1ccc(Cl)c([N+](=O)[O-])c1)[C@H](Cc1ccccc1)N1C(=O)N[C@@H](Cc2ccccc2)C1=O

Ki [1]: > 50 µM
Structure (SMILES): O=C(NS(=O)(=O)c1ccccc1)[C@H](Cc1ccccc1)N1C(=O)N[C@@H](Cc2ccc(Br)cc2)C1=O

Ki [1]: > 50 µM
Structure (SMILES): O=C(NS(=O)(=O)c1ccc(Cl)c([N+](=O)[O-])c1)[C@H](Cc1ccccc1)N1C(=O)N[C@@H](Cc2ccc(Br)cc2)C1=O

Ki [1]: 19 µM
Structure (SMILES): O=C(NS(=O)(=O)c1ccccc1)[C@H](Cc1ccccc1)N1C(=O)N[C@@H](Cc2ccc(-c3ccc(Cl)cc3)cc2)C1=O

Ki [1]: > 50 µM
Structure (SMILES): Cc1ccc(S(=O)(=O)NC(=O)[C@H](Cc2ccccc2)N2C(=O)N[C@@H](Cc3ccc(-c4ccc(Cl)cc4)cc3)C2=O)cc1

Ki [1]: 3.7 µM | Ki (Bcl-2-like protein 1): 6.1 µM | Ki [2]: 2.9 µM
Structure (SMILES): O=C(NS(=O)(=O)c1ccc(Cl)c([N+](=O)[O-])c1)[C@H](Cc1ccccc1)N1C(=O)N[C@@H](Cc2ccc(-c3ccc(Cl)cc3)cc2)C1=O
IC50 (K562): 39.4 µM | IC50 (PC-3): 51.7 µM | IC50 (MDA-MB-231): 70.8 µM

Ki [1]: 15 µM | Ki (Bcl-2-like protein 1): > 50 µM | Ki [2]: > 50 µM
Structure (SMILES): O=C(NS(=O)(=O)c1cccc([N+](=O)[O-])c1)[C@H](Cc1ccccc1)N1C(=O)N[C@@H](Cc2ccc(-c3ccc(Cl)cc3)cc2)C1=O
IC50 (K562): 49 µM | IC50 (PC-3): 73.3 µM | IC50 (MDA-MB-231): 76.4 µM

Ki [1]: > 50 µM
Structure (SMILES): Cc1cccc(-c2ccc(C[C@@H]3NC(=O)N([C@@H](Cc4ccccc4)C(=O)NS(=O)(=O)c4ccccc4)C3=O)cc2)c1

Ki [1]: 13 µM | Ki (Bcl-2-like protein 1): > 50 µM | Ki [2]: > 50 µM
Structure (SMILES): Cc1ccc(S(=O)(=O)NC(=O)[C@H](Cc2ccccc2)N2C(=O)N[C@@H](Cc3ccc(-c4cccc(C)c4)cc3)C2=O)cc1
IC50 (K562): 46.9 µM | IC50 (PC-3): 56 µM | IC50 (MDA-MB-231): 63.5 µM

Ki [1]: 4.4 µM | Ki (Bcl-2-like protein 1): 4.7 µM | Ki [2]: 2.3 µM
Structure (SMILES): Cc1cccc(-c2ccc(C[C@@H]3NC(=O)N([C@@H](Cc4ccccc4)C(=O)NS(=O)(=O)c4ccc(Cl)c([N+](=O)[O-])c4)C3=O)cc2)c1
IC50 (K562): 35.1 µM | IC50 (PC-3): 28.4 µM | IC50 (MDA-MB-231): 57.8 µM

Ki [1]: 13 µM | Ki (Bcl-2-like protein 1): > 50 µM | Ki [2]: 9.3 µM
Structure (SMILES): O=Cc1ccc(-c2ccc(C[C@@H]3NC(=O)N([C@@H](Cc4ccccc4)C(=O)NS(=O)(=O)c4ccc(Cl)c([N+](=O)[O-])c4)C3=O)cc2)cc1
IC50 (K562): 68.4 µM | IC50 (PC-3): 63.8 µM | IC50 (MDA-MB-231): 83.4 µM

Ki [1]: > 50 µM
Structure (SMILES): O=C(NS(=O)(=O)c1ccccc1)[C@H](Cc1ccccc1)N1C(=O)N[C@@H](Cc2ccc(-c3ccnc(F)c3)cc2)C1=O

Ki [1]: > 50 µM
Structure (SMILES): Cc1ccc(S(=O)(=O)NC(=O)[C@H](Cc2ccccc2)N2C(=O)N[C@@H](Cc3ccc(-c4ccnc(F)c4)cc3)C2=O)cc1

Ki [1]: > 50 µM
Structure (SMILES): O=C(NS(=O)(=O)c1ccc(Cl)c([N+](=O)[O-])c1)[C@H](Cc1ccccc1)N1C(=O)N[C@@H](Cc2ccc(-c3ccnc(F)c3)cc2)C1=O

Ki [1]: > 50 µM
Structure (SMILES): COC(=O)[C@@H](NC(=O)[C@H](Cc1ccccc1)N1C(=O)N[C@@H](Cc2ccc(-c3ccc(Cl)cc3)cc2)C1=O)C(C)C

Ki [1]: > 50 µM
Structure (SMILES): CC(C)[C@H](NC(=O)[C@H](Cc1ccccc1)N1C(=O)N[C@@H](Cc2ccc(-c3ccc(Cl)cc3)cc2)C1=O)C(=O)O

Ki [1]: > 50 µM
Structure (SMILES): CC(=O)Oc1ccc(NC(=O)[C@H](Cc2ccccc2)N2C(=O)N[C@@H](Cc3ccc(-c4ccc(Cl)cc4)cc3)C2=O)cc1
